Measurements: ChEMBL document CHEMBL1154198, “Chemical genetics of Plasmodium falciparum” (Nature, 2010)
pEC50: −log10 of the molar value.

Experiments:
Plasmodium falciparum [1] = experiment: ST_JUDE: Plasmodium falciparum 3D7 EC50 (uM) as measured by SYBR green dye; type: functional, organism-based
Plasmodium falciparum [2] = experiment: ST_JUDE: Plasmodium falciparum K1 EC50 (uM) as measured by SYBR green dye; type: functional, organism-based

Structure (SMILES)	pEC50 (Plasmodium falciparum [1])	pEC50 (Plasmodium falciparum [2])
O=C(Nc1cccc(C(F)(F)F)c1)c1cc2ccccc2oc1=O	< 4.82	< 4.82
CC(=O)Nc1ccc(S(=O)(=O)Nc2ccc(Nc3nc(C)cc(N(C)C)n3)cc2)cc1	5.71	5.20
Cc1cc(N2CCN(C)CC2)nc2ccc(NC(=O)c3cccc(N(C)C)c3)cc12	6.21	5.20
COc1ccccc1C1CC(c2ccccc2)=NN1C(=O)c1ccccc1 (stereo not drawn)	6.07	5.36
CN1CCN(c2ccc(-c3cccc(NC(=O)c4cccc([N+](=O)[O-])c4)c3)nn2)CC1	< 4.82	5.42
Cc1ccc(Nc2nc(NCc3ccccc3)c3ccccc3n2)cc1	6.12	5.44
CN1CCN(c2cc(N3CCN(C)CC3)c([N+](=O)[O-])cc2C2Nc3ccc4ccccc4c3C3=C2C(=O)CC(C)(C)C3)CC1 (stereo not drawn)	5.46	< 4.82
O=C(O)/C=C1\SC(=O)NC1=O	< 4.82	< 4.82
CCCOc1ccc(-c2[nH]ncc2Oc2ccccc2)c(O)c1	5.33	5.60
CCc1cccc(NC(=O)C2c3ccccc3C(=O)N(C3CCCC3)C2c2cccs2)c1 (stereo not drawn)	5.64	5.70
CCOC(=O)C1=C(c2ccccc2)N=C(S)NC1c1cc(Cl)ccc1OC (stereo not drawn)	< 4.82	< 4.82
COc1ccc(CN2CCN(Cc3cc(Br)ccc3O)CC2)cc1OC	5.31	5.20
CN1c2ccccc2N(C)C1c1ccc(Sc2ccc(C3N(C)c4ccccc4N3C)o2)o1	< 4.82	5.78
CCN(CC)CCn1c(=N)n(CCOc2ccc(Cl)cc2Cl)c2ccccc21	< 4.82	5.13
COc1ccc(/C=C(\C#N)c2nn(CCO)c(N)c2C#N)cc1	< 4.82	< 4.82
COc1cccc(Nc2nc(N3CCN(CCO)CC3)nc3c2cnn3-c2ccccc2)c1	5.48	5.33
Cc1cc(N2CCN(C)CC2)nc2ccc(NC(=S)NCCCN3CCc4ccccc4C3)cc12	5.83	5.18
CCCC(=O)NC(c1ccc(Cl)cc1)c1c(OC(C)=O)ccc2ccccc12 (stereo not drawn)	5.16	5.03
Cc1cc(C)c2nc(C)cc(Nc3cccc(Cl)c3)c2c1	6.09	5.42
CCOc1ccc(NC2=C/C(=N/S(=O)(=O)c3ccc(OC)cc3)c3ccccc3C2=O)cc1	6.45	6.81
Cc1ccc(CN2CCN(Cc3c(C)nn(C)c3Cl)CC2CCO)cc1 (stereo not drawn)	< 4.82	< 4.82
Cc1nc2ccc(OCC(C)C)cc2c(O)c1CN(C)C1CCN(C)CC1	< 4.82	< 4.82

Structure (SMILES)	pEC50 (Plasmodium falciparum [1])	pEC50 (Plasmodium falciparum [2])
N#Cc1cccc(NC(=O)C2c3ccccc3C(=O)N(C3CCCC3)C2c2cccs2)c1 (stereo not drawn)	6.73	6.60
CCOc1ccccc1/C=C/C(=O)Nc1ccc2nc(N3CCN(C)CC3)cc(C)c2c1	6.36	< 4.82
O=C(CCc1ccccc1)N(Cc1cccnc1)c1nc2ccc(F)cc2s1	< 4.82	< 4.82
Cc1cc(C)c(C)c(OCCCCCCN2CCCC2)c1	< 4.82	< 4.82
CCOC(=O)c1c(CSC(=N)N)n(-c2ccccc2)c2cc(Br)c(OC(C)=O)cc12	6.13	5.54
CCN(CC)c1cc(C)c2cc(NC(=O)c3cccc(OC)c3)ccc2n1	5.32	< 4.82
CCC1CCCCN1S(=O)(=O)c1ccc(C(=O)NNc2nc3c(C)cccc3s2)cc1 (stereo not drawn)	< 4.82	< 4.82
CCOC(=O)N1CCC(NC(=O)Nc2cc(C(F)(F)F)cc(C(F)(F)F)c2)CC1	6.00	5.89
CCOc1ccccc1N(CC(=O)Nc1ccccc1C(C)C)S(=O)(=O)c1ccccc1	< 4.82	< 4.82
C=CCN1C=CC(=Cc2ccc3cc(C)ccc3[n+]2CC)C=C1	5.85	6.26
CN(CCO)CCCCOc1ccc2c(c1)C(=O)c1cc(OCCCCN(C)CCO)ccc1-2	< 4.82	5.44
CCOc1cccc(C(=O)Nc2nonc2-c2ccc(OCC)c(OCC)c2)c1	6.77	6.66
O=C(Nc1ccccc1O)c1ccc(-c2ccc(Cl)cc2Cl)o1	5.61	< 4.82
O=C(Nc1ccc(Cl)c(Cl)c1)Nc1ccc(Cl)c([N+](=O)[O-])c1	< 4.82	< 4.82
O=C(C1CCCCC1)N(Cc1cccnc1)c1nc2c(Cl)cccc2s1	5.63	5.63
Cc1cccc(-n2ccnc2SCC(=O)Nc2cccc(C(F)(F)F)c2)c1C	6.08	5.74
COc1ccc(C2CC(=O)C3=C(C2)NC(=O)CC3c2ccc(SC)cc2)cc1OC (stereo not drawn)	5.44	5.32
CCc1ccc(Oc2c(C(F)(F)F)oc3c(CN4CCOCC4)c(O)ccc3c2=O)cc1	< 4.82	< 4.82
CCOC(=O)c1cc(NC(=O)CSc2nc3ccccc3[nH]2)ccc1Cl	5.66	5.49
COc1ccc(O)c(CN2CCN(Cc3ccc(C)cc3)CC2)c1	5.79	6.01
CC1CCN(Cc2cc(COCc3ccccc3)c3cccnc3c2O)CC1	5.54	5.50
COc1ccc(OC)c2sc(N(Cc3cccnc3)C(=O)c3cccc(C)c3)nc12	< 4.82	5.63
